Data published in patent publication US12372533B2, “Identification of immunogenic mutant peptides using genomic, transcriptomic and proteomic information” (Genentech, Inc., priority 2014, dated 2025).
Where a SMILES comes first, the peptide text is derived from it.

Key:
Format in all cases: in vivo, mouse
wild type C57BL/6 mice = assay: Immunization of mice with long peptides plus adjuvant, CD8 T cell response by MHCI/peptide-specific dextramers; conditions: long peptides encoding the mutated epitopes plus adjuvant, day 0 and day 14, compared to adjuvant alone; FIG. 4A
MC-38 tumors = assay: Peptide-specific CD8 tumor-infiltrating cells (TILs) in MC-38 tumors, dextramer staining; conditions: for peptide-specific CD8 T cells in the tumor bed: FIG. 4B
Description: (§1) The immunogenicity of these mutated peptides was confirmed in the context of the tumor by analyzing tumor-infiltrating cells (TILs).
C57BL/6 mice were implanted subcutaneously on the right flank with 1×10^5 MC-38 tumor cells. The whole tumor was isolated and digested with collagenase and DNAase to isolate TILs. TILs were stained with dextramers (as described above) followed by antibodies against CD45, Thy1.2, CD4, CD8 (BD Biosciences), PD-1 (eBiosciences) and TIM-3 (R&D Systems). Live/dead stain was used to gate on live cells.

TRAMP-C1 tumors = assay: Peptide-specific CD8 tumor-infiltrating cells in syngeneic TRAMP-C1 tumors
Description: as §1

Row | Compound | CD8 T cell response (wild type C57BL/6 mice) | peptide-specific CD8 T cells in the tumor bed (MC-38 tumors) | Adpgk-specific CD8 T cells in tumor (TRAMP-C1 tumors) | relative abundance of peptide-specific CD8 T cells among Reps1, Adpgk and Dpagt1 (MC-38 tumors)
1 | CC(C)C[C@H](NC(=O)[C@@H](NC(=O)[C@@H](NC(=O)[C@H](CC(=O)O)NC(=O)[C@H](CC(N)=O)NC(=O)[C@H](C)NC(=O)[C@H](CC(C)C)NC(=O)[C@H](CCC(N)=O)NC(=O)[C@H](C)N)C(C)C)C(C)C)C(=O)O [Reps1, AQLANDVVL] (H-AQLANDVVL-OH; N-terminus and C-terminus assumed) | strong CD8 T cell responses | enriched in the tumor bed |  | 
2 | ASMTNMELM [Adpgk, mutant peptide presented on MHCI (H-2Db) in the MC-38 cell line] | strong CD8 T cell responses | enriched in the tumor bed | no Adpgk-specific CD8 T cells were detected | most abundant of the three
3 | SIIVFNLL [Dpagt1, mutant peptide presented on MHCI (H-2Kb) in the MC-38 cell line] | weak CD8 T cells response | enriched in the tumor bed |  | 
